Measured values published in ChEMBL document CHEMBL1250451, “Mechanistic insights into a Ca2+-dependent family of alpha-mannosidases in a human gut symbiont” (Nat Chem Biol, 2010).

How the values were obtained:
Type in all cases: protein assay
[1] = biological target: T1, Alpha-1,2-mannosidase (BT_3990) (Bacteroides thetaiotaomicron) (UniProt Q8A0N1); experiment: Activity of Bacteroides thetaiotaomicron GH92 alpha-mannosidase 3990 assessed as recovery of enzyme activity at 1 mM relative to enzyme activity in presence of calcium
T1 sequence (whole entry): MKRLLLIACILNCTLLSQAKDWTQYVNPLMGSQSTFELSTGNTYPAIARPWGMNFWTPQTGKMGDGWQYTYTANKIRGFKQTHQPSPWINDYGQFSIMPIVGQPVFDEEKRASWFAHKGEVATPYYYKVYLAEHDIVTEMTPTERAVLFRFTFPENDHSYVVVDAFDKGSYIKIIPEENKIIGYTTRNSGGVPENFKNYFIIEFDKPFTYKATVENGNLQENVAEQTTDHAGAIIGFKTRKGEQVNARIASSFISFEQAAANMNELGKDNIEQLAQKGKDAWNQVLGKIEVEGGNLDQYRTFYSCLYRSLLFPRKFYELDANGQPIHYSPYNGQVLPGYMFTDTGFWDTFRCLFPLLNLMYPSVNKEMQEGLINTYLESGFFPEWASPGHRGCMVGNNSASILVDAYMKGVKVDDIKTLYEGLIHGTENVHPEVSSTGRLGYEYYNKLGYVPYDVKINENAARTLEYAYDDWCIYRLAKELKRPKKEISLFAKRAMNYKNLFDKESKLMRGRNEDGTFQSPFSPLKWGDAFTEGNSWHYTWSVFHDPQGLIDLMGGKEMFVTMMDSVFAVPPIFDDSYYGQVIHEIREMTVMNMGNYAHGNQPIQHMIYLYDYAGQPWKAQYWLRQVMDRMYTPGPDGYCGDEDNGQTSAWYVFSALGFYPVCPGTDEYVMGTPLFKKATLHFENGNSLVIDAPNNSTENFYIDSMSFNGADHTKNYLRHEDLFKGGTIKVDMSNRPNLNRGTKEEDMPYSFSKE

[2] = biological target: T2, Alpha-1,2-mannosidase (BT_2199) (Bacteroides thetaiotaomicron) (UniProt Q8A5N9); experiment: Activity of Bacteroides thetaiotaomicron GH92 alpha-mannosidase 2199 assessed as recovery of enzyme activity at 1 mM in presence of 7 mM V(3+) ions and in presence of 5 mM EDTA in 100 mM pH 7 MOPS buffer relative to enzyme activity in presence of calcium
T2 sequence (whole entry): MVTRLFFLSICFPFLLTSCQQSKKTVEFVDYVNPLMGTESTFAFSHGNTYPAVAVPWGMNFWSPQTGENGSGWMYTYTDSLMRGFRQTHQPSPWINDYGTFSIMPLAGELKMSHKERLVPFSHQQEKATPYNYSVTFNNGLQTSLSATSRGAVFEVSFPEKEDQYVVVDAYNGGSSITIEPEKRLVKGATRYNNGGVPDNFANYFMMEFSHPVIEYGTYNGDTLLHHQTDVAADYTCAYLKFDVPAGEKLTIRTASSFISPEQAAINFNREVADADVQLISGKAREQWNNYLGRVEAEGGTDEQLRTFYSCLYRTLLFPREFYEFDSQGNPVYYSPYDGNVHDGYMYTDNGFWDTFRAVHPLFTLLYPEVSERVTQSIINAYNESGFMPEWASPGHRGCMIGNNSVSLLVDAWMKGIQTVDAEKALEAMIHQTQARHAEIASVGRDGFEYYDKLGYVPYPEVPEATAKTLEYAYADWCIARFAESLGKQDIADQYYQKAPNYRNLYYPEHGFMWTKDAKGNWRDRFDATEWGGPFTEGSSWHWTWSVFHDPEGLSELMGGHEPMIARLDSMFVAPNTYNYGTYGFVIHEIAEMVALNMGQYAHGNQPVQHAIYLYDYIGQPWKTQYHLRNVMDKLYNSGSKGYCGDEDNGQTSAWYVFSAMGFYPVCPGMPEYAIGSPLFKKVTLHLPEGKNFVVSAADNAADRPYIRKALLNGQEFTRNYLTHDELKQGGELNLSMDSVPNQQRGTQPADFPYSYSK

[3] = biological target: T1, Alpha-1,2-mannosidase (BT_3990) (Bacteroides thetaiotaomicron); experiment: Activity of Bacteroides thetaiotaomicron GH92 alpha-mannosidase 3990 assessed as recovery of enzyme activity at 1 mM in presence of 7 mM Zn(2+) ions and in presence of 5 mM EDTA in 100 mM pH 7 MOPS buffer relative to enzyme activity in presence of calcium
[4] = biological target: T1, Alpha-1,2-mannosidase (BT_3990) (Bacteroides thetaiotaomicron); experiment: Activity of Bacteroides thetaiotaomicron GH92 alpha-mannosidase 3990 assessed as recovery of enzyme activity at 1 mM in presence of 7 mM Mn(2+) ions and in presence of 5 mM EDTA in 100 mM pH 7 MOPS buffer relative to enzyme activity in presence of calcium
[5] = biological target: T2, Alpha-1,2-mannosidase (BT_2199) (Bacteroides thetaiotaomicron); experiment: Activity of Bacteroides thetaiotaomicron GH92 alpha-mannosidase 2199 assessed as recovery of enzyme activity at 1 mM in presence of 7 mM Ti(3+) ions and in presence of 5 mM EDTA in 100 mM pH 7 MOPS buffer relative to enzyme activity in presence of calcium
[6] = biological target: T2, Alpha-1,2-mannosidase (BT_2199) (Bacteroides thetaiotaomicron); experiment: Activity of Bacteroides thetaiotaomicron GH92 alpha-mannosidase 2199 assessed as recovery of enzyme activity at 1 mM in presence of 7 mM Zn(2+) ions and in presence of 5 mM EGTA in 100 mM pH 7 MOPS buffer relative to enzyme activity in presence of calcium
[7] = biological target: T1, Alpha-1,2-mannosidase (BT_3990) (Bacteroides thetaiotaomicron); experiment: Activity of Bacteroides thetaiotaomicron GH92 alpha-mannosidase 3990 assessed as recovery of enzyme activity at 1 mM in presence of 7 mM V(3+) ions and in presence of 5 mM EDTA in 100 mM pH 7 MOPS buffer relative to enzyme activity in presence of calcium
[8] = biological target: T2, Alpha-1,2-mannosidase (BT_2199) (Bacteroides thetaiotaomicron); experiment: Activity of Bacteroides thetaiotaomicron GH92 alpha-mannosidase 2199 assessed as recovery of enzyme activity at 1 mM in presence of 7 mM Co(2+) ions and in presence of 5 mM EGTA in 100 mM pH 7 MOPS buffer relative to enzyme activity in presence of calcium
[9] = biological target: T2, Alpha-1,2-mannosidase (BT_2199) (Bacteroides thetaiotaomicron); experiment: Activity of Bacteroides thetaiotaomicron GH92 alpha-mannosidase 2199 assessed as recovery of enzyme activity at 1 mM in presence of 7 mM Mn(2+) ions and in presence of 5 mM EDTA in 100 mM pH 7 MOPS buffer relative to enzyme activity in presence of calcium
[10] = biological target: T2, Alpha-1,2-mannosidase (BT_2199) (Bacteroides thetaiotaomicron); experiment: Activity of Bacteroides thetaiotaomicron GH92 alpha-mannosidase 2199 assessed as recovery of enzyme activity at 1 mM in presence of 7 mM Sr(2+) ions and in presence of 5 mM EDTA in 100 mM pH 7 MOPS buffer relative to enzyme activity in presence of calcium
[11] = biological target: T1, Alpha-1,2-mannosidase (BT_3990) (Bacteroides thetaiotaomicron); experiment: Activity of Bacteroides thetaiotaomicron GH92 alpha-mannosidase 3990 assessed as recovery of enzyme activity at 1 mM in presence of 7 mM Ba(2+) ions and in presence of 5 mM EDTA in 100 mM pH 7 MOPS buffer relative to enzyme activity in presence of calcium
[12] = biological target: T1, Alpha-1,2-mannosidase (BT_3990) (Bacteroides thetaiotaomicron); experiment: Activity of Bacteroides thetaiotaomicron GH92 alpha-mannosidase 3990 assessed as recovery of enzyme activity at 1 mM in presence of 7 mM Ca(2+) ions and in presence of 5 mM EGTA in 100 mM pH 7 MOPS buffer relative to enzyme activity in presence of calcium

Activity [1] [%] | Activity [2] [%] | Activity [3] [%] | Activity [4] [%] | Activity [5] [%] | Activity [6] [%] | Activity [7] [%] | Activity [8] [%] | Activity [9] [%] | Activity [10] [%] | Activity [11] [%] | Activity [12] [%] | SMILES
65 |  |  |  |  |  |  |  |  |  |  |  | OC[C@H]1O[C@H](OC[C@H]2O[C@H](O)[C@@H](O)[C@@H](O)[C@@H]2O)[C@@H](O)[C@@H](O)[C@@H]1O
 | 0 | 0 | 13 | 0 | 0 | 0 | 12 | 8 | 31 | 0 | 100 | O=[N+]([O-])c1ccc(O[C@H]2O[C@H](CO)[C@@H](O)[C@H](O)[C@@H]2O)cc1
